Source: PMC7245553 (Cell chemical biology, 2020)

Columns and labels:
[1] = system: DG167-resistant M. tuberculosis; assay type: cell-based, Mycobacterium tuberculosis
[2] = system: clinical drug-sensitive and drug-resistant strains of M. tuberculosis; assay: Whole-cell activity versus clinical M. tuberculosis strains; assay type: cell-based, Mycobacterium tuberculosis

SMILES	cross-resistance with DG167 [1]	whole-cell activity versus clinical strains [2]
CCCCS(=O)(=O)Nc1ccc2[nH]c(C#N)c(C)c2c1 [Compound 9, N-(2-cyano-3-methyl-1H-indol-5-yl)butane-1-sulfonamide]	cross-resistant	maintained their in vitro potency
CCCCCS(=O)(=O)Nc1ccc2[nH]c(C#N)c(C)c2c1 [Compound 10, N-(2-cyano-3-methyl-1H-indol-5-yl)pentane-1-sulfonamide]	cross-resistant	maintained their in vitro potency
Cc1n[nH]c2ccc(NS(=O)(=O)CCCCF)cc12 [JSF-3285, 4-fluoro-N-(3-methyl-1H-indazol-5-yl)butane-1-sulfonamide]	cross-resistant with DG167	comparable with its efficacy versus the H37Rv strain
